Values of other authors as cited in patent US20220273015A1, “FORMULATIONS AND USES THEREOF” (priority 2021, published 2022).
Entries after “also recorded” stand apart in the source; their conditions may differ.

Assays:
[1] = for Properties: properties in words from a review of the primary literature (PMIDs in the cell), wrapped cell lines; for Stability: best preserved in an alcoholic tincture
[2] = tested on: atypical/precancerous stem cells; settings: used separately or together in one study
[3] = <1 ug daily, postoperative control of analgesia

Molecule: CCCCCCCCCCCCCCCC(=O)O [Palmitic Acid]
- Wound healing / skin repair and skin health ([1]; qualitative, PMID-cited): Palmitic Acid is a saturated fat essential to skin

Molecule: CCCCCCCC/C=C\CCCCCCCC(=O)O [Oleic acid]
- lipophilic penetration of skin cells ([1]; "may enhance", PMID 21871866, PMID 2367329): enhance lipophilic penetration of skin cells
- effect on the cell membrane allowing for drug permeability ([1]; PMID 2235880): 21871866) and creates a temporary disruption
- targeted drug delivery across the skin ([1]; PMID 2514720): facilitate targeted drug delivery across the skin

Molecule: COc1cc(CCC(C)=O)ccc1O [zingerone]
- diuretic effect ([1]; observed only at a dose of 30 mg/kg in normal mice, PMID 20606379): Oil, zingerone exhibited a mild diuretic effect

Molecule: Vitamin E
- Properties [1]: skin barrier stabilizing properties (PMID

Molecule: CCc1ccc(C)c2ccc(C)c-2c1 [chamazulene]
- Stability [1]: are very unstable and are best preserved in an

Molecule: O=C1CC[C@@]2(O)[C@H]3Cc4ccc(O)c5c4[C@@]2(CCN3CC2CC2)[C@H]1O5 [ULDN]
- need for total amount of opioids following surgery [1, 3]: (reduces the need for total amount of opioids
- side-effects of opioid-related treatment [1, 3]: following surgery and ameliorating side-effects

Molecule: C=C(C)[C@H]1CC=C(C)CC1 [D-limonene]
- Antimicrobial, antiparasitic, insecticidal / insect repellent properties ([1]; qualitative, PMID-cited): a result. D-limonene has antimicrobial
- Effects in animal models ([1]; qualitative, rodent/animal models, PMID-cited): more capable. D-limonene has a mild diuretic

Molecule: COc1cc(/C=C/C(=O)CC(=O)/C=C/c2ccc(O)c(OC)c2)ccc1O [curcumin]
- number of atypical/precancerous stem cells [2]: reduced

Molecule: O=c1cc(-c2ccc(O)cc2)oc2cc(O)cc(O)c12 [Apigenin]
- Anti-cancer / cytotoxic / antitumor properties ([1]; qualitative, PMID-cited): exerts an antitumor effect in preclinical models

Molecule: CC(C)=CCC[C@](C)(O)C1CC=C(C)CC1 (stereo partly drawn) [bisabolol]
- Stability [1]: are very unstable and are best preserved in an

Molecule: O=C1CC[C@@]2(O)[C@H]3Cc4ccc(O)c5c4[C@@]2(CCN3CC2CC2)[C@H]1O5 [VLDN]
- tolerability of opioid-weaning methadone taper ([1]; <1 ug X <0.5 mg daily): VLDN: boosting tolerability of opioid-weaning

Molecule: CC(C)=CCC/C(C)=C/CC/C(C)=C/CC/C(C)=C/CC/C(C)=C/CC/C(C)=C/CC/C(C)=C/CC1=C(C)C(=O)c2ccccc2C1=O [MK7]
- bone mineral density ([1]; by facilitating signaling cascades which improve translocation of calcium from the serum into the bony matrix, PMID 32244313): other vitamin K homologs. MK7 increases

Molecule: CCCCCCCC/C=C\CCCCCCCC(=O)O [Oleic acid (OA)]
- Safety / toxicity ([1]; qualitative): lead to heart failure (PMID 28391879) though
- Skin penetration / delivery of ingredients across skin and membranes ([1]; qualitative, PMID-cited): Oleic acid (OA) enhances lipophilic penetration

Molecule: CC(=O)N[C@@H](CS)C(=O)O [N-Acetyl Cysteine (NAC)]
- Properties [1]: completely blocks Reactive Oxygen Species

Molecule: O=c1c(O)c(-c2ccc(O)c(O)c2)oc2cc(O)cc(O)c12 [Quercetin]
- Anti-cancer / cytotoxic / antitumor properties ([1]; qualitative, PMID-cited): antitumor effects PMID 31880372) the ability

Molecule: CCCCC/C=C\C/C=C\CCCCCCCC(=O)O [linoleic acid]
- Safety / toxicity ([1]; qualitative): in high quantities is associated with higher rates
- Wound healing / skin repair and skin health ([1]; qualitative, PMID-cited): polyunsaturated fat that improves skin barrier

Molecule: O=C(O)CCCCC1CCSS1 (stereo not drawn) [Alpha-Lipoic Acid]
- blood flow to damaged nerves, nerve conduction velocity, and other measures of nerve function ([1]; PMID 25381809): microcirculation (PMID 160261130), improves
- diabetic polyneuropathy ([1]; PMID 160261130): improving
- microcirculation ([1]; PMID 160261130): oxidative stress, aging, cancer, improves
- oxidative stress, aging, cancer ([1]; PMID 160261130): reducing
- antioxidant protection of lipids ([1]; such as those found in the myelin sheath of neurons): Antioxidant which specifically protects lipids

Molecule: O=C(O)c1cc(O)c(O)c(O)c1 [Gallic Acid]
- antioxidant, anti-inflammatory, anti-microbial, anti-cancer activities ([1]; PMID 30657034): Powerful antioxidant, anti-inflammatory, anti-
- preventing and treating acne ([1]; PMID 32390309, PMID 30617549): 23501608). Useful in preventing and treating
- inhibitory properties against cancer ([1]; in vitro and in vivo, PMID 23501608): Plant polyphenol with strong inhibitory
- NFKB, Akt, COX, ribonucleotide reductase and GSH pathways ([1]; mechanism of anti-cancer effect, PMID 23501608): (PMID 23501608) by inhibition of NFKB, Akt,
- ATM kinase signaling ([1]; to prevent carcinogenesis, PMID 23501608): pathways; and also activates ATM kinase

Molecule: CCCCC/C=C\C/C=C\CCCCCCCC(=O)O [Linoleic acid]
- Wound healing / skin repair and skin health ([1]; qualitative, PMID-cited): shown to lighten UV-induced

Molecule: C=C1/C(=C\C=C2/CCC[C@]3(C)[C@@H]([C@H](C)/C=C/[C@@H](O)C4CC4)CC[C@@H]23)C[C@@H](O)C[C@@H]1O [calcipotriene]
- chronic plaque psoriasis ([1]; topical application, PMID 10753146): topical application of calcipotriene improves

Molecule: CCCCCCCCCCCCCCCCCC(=O)O [Stearic acid]
- Metabolic and cardiovascular effects (lipids, blood pressure, glucose, clotting) ([1]; qualitative, PMID-cited): 10945745) and can increase the “good”
- Wound healing / skin repair and skin health ([1]; qualitative, PMID-cited): a saturated fatty acid beneficial to skin; also recorded: important in wound healing of burns (PMID
